Data from PubChem BioAssay (NCI).
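Dose response: 5 concentrations. Exposure: 48 h. Format: 96-well plates. Endpoint: linear interpolation; highest concentration if not reached. GI50: concentration for 50% inhibition of growth. TGI is the concentration that stops growth completely.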

Assays:
Assay in all cases: NCI anticancer screen, dose series, 48 h
ACHN renal = test system: ACHN renal
HCT-15 colon = test system: HCT-15 colon
NCI-H226 lung = test system: NCI-H226 lung
OVCAR-8 ovarian = test system: OVCAR-8 ovarian
SK-MEL-2 melanoma = test system: SK-MEL-2 melanoma
SK-OV-3 ovarian = test system: SK-OV-3 ovarian
TK-10 renal = test system: TK-10 renal
U251 CNS = test system: U251 CNS
UACC-257 melanoma = test system: UACC-257 melanoma

Structure (SMILES)	TGI (ACHN renal)	TGI (HCT-15 colon)	TGI (NCI-H226 lung)	TGI (OVCAR-8 ovarian)	TGI (SK-MEL-2 melanoma)	TGI (SK-OV-3 ovarian)	TGI (TK-10 renal)	TGI (U251 CNS)	TGI (UACC-257 melanoma)	GI50 (ACHN renal)	GI50 (HCT-15 colon)	GI50 (NCI-H226 lung)	GI50 (OVCAR-8 ovarian)	GI50 (SK-MEL-2 melanoma)	GI50 (TK-10 renal)	GI50 (UACC-257 melanoma)	GI50 (SK-OV-3 ovarian)	GI50 (U251 CNS)
O=C(CCc1ccccc1)On1nnc2ccccc2c1=O	> 100 µM	> 100 µM	> 100 µM	> 100 µM	> 100 µM	> 100 µM	96.2 µM	> 100 µM	> 100 µM	–	–	–	–	–	–	–	–	–
COc1ccc(OC)c(-c2cc(-c3ccccc3)nn2-c2ccc(S(N)(=O)=O)cc2)c1	19.7 µM	17.1 µM	33.6 µM	27 µM	> 100 µM	–	26 µM	–	31.6 µM	8.01 µM	5.07 µM	15 µM	10.2 µM	27.5 µM	12.7 µM	15.2 µM	–	–
CCN(CC)CCCCCOc1cc(O)c2c(=O)cc(-c3ccccc3)oc2c1	11.7 µM	3.76 µM	25.8 µM	25.5 µM	11.4 µM	17.8 µM	27.1 µM	11.8 µM	3.55 µM	3.72 µM	1.58 µM	10.5 µM	11.5 µM	3.23 µM	7.1 µM	1.81 µM	6.95 µM	3.16 µM
CN(/N=C/c1ccnc2ccccc12)c1ccc([N+](=O)[O-])cc1[N+](=O)[O-]	> 100 µM	> 100 µM	> 100 µM	> 100 µM	79.1 µM	> 100 µM	> 100 µM	> 100 µM	> 100 µM	–	–	–	–	–	–	–	–	–
Cc1cccc2c1Oc1cc(Cl)ccc1C2NC(=O)CN(C)C (configuration not stated)	> 100 µM	> 100 µM	> 100 µM	> 100 µM	–	> 100 µM	> 100 µM	–	89.5 µM	–	–	–	–	–	–	–	–	–
O=C(O)c1ccc(N=Nc2cc(S(=O)(=O)O)c3cccnc3c2O)cc1	> 100 µM	> 100 µM	> 100 µM	> 100 µM	> 100 µM	> 100 µM	> 100 µM	> 100 µM	> 100 µM	–	–	–	–	–	–	–	–	–
CC1=Nc2c([nH]c(=S)[nH]c2=O)NC(c2ccc(Cl)c(Cl)c2)C1 (configuration not stated)	> 100 µM	> 60.1 µM	48.8 µM	38.2 µM	> 100 µM	95.6 µM	> 87.7 µM	31.1 µM	47 µM	–	–	–	–	–	–	–	–	–
C[C@H]1COC2(c3ccccc3)CCC(=O)N12 (some centres not stated)	> 100 µM	> 100 µM	–	> 100 µM	> 100 µM	–	> 100 µM	> 100 µM	> 100 µM	–	–	–	–	–	–	–	–	–
CC(=O)OCC(OC(C)=O)C(OC(C)=O)C(OC(C)=O)C(=O)CNn1c(-c2ccccc2)nc2ccc(Br)cc2c1=O (configuration not stated)	> 100 µM	> 100 µM	> 100 µM	> 100 µM	> 100 µM	> 100 µM	–	> 100 µM	> 100 µM	–	–	–	–	–	–	–	–	–
OCC(O)COc1c(Cl)ccc(Cl)c1Cl (configuration not stated)	> 100 µM	> 100 µM	> 100 µM	> 100 µM	> 100 µM	> 100 µM	> 100 µM	> 100 µM	> 100 µM	–	–	–	–	–	–	–	–	–
CN(C)c1nc(N(C)C)n2nc(-c3ccccc3[N+](=O)[O-])nc2n1	> 100 µM	31.3 µM	> 100 µM	> 100 µM	> 100 µM	> 100 µM	> 100 µM	> 100 µM	> 100 µM	–	–	–	–	–	–	–	–	–
O=C1OC(c2ccccc2)=N/C1=C\c1c(O)cc(O)cc1O	> 100 µM	> 100 µM	–	> 100 µM	> 100 µM	> 100 µM	> 100 µM	> 100 µM	> 100 µM	–	–	–	–	–	–	–	–	–
CC(C)CC(CNC(Cc1ccc(Cl)cc1)C(N)=O)NC(=O)C(Cc1cnc[nH]1)NC(=O)CNC(=O)C(NC(=O)C(C)NC(=O)C(Cc1c[nH]c2ccccc12)NC(=O)C(CCC(=O)O)NC(=O)C(N)Cc1ccccc1)C(C)C (configuration not stated)	> 133 µM	> 133 µM	–	> 133 µM	> 133 µM	> 133 µM	–	> 133 µM	> 133 µM	–	–	–	–	–	–	–	–	–
CCOC(OCC)c1ccc(/C=C/c2cc(OC)c(OC)c(OC)c2)cc1	> 100 µM	30.7 µM	62.5 µM	76.3 µM	–	–	82 µM	32.2 µM	51.2 µM	–	–	–	–	–	–	–	–	–
COC(=O)C1=C(c2cc(OC)c(OC)c(OC)c2)OC(c2cc(OC)c(OC)c(OC)c2)C1COC(C)=O (configuration not stated)	> 100 µM	> 100 µM	> 100 µM	> 100 µM	–	> 100 µM	> 100 µM	> 100 µM	> 100 µM	–	–	–	–	–	–	–	–	–
COc1ccc(/C=C/c2nc(=S)[nH][nH]2)cc1	> 100 µM	> 100 µM	> 100 µM	> 100 µM	> 100 µM	–	> 100 µM	> 100 µM	> 100 µM	–	–	–	–	–	–	–	–	–
O=C(CCC(=O)N/N=C/c1ccccc1O)N/N=C/c1ccccc1O	–	> 100 µM	> 100 µM	> 100 µM	81.3 µM	37.2 µM	> 100 µM	> 100 µM	> 100 µM	–	–	–	–	–	–	–	–	–
CCc1ccc(/C(C)=N/NC(N)=S)cc1	–	–	–	> 100 µM	> 100 µM	> 100 µM	> 100 µM	> 100 µM	–	–	–	–	–	–	–	–	–	–
Fc1ccc(F)c(C2SCc3nc4ccccc4n32)c1 (configuration not stated)	> 100 µM	> 100 µM	> 100 µM	> 100 µM	–	> 100 µM	> 100 µM	> 100 µM	> 100 µM	–	–	–	–	–	–	–	–	–
